Data taken from patent US20240360178A1, “MACROCYCLIC IMMUNOMODULATORS” (Bristol-Myers Squibb Company, priority 2021, published 2024).
Positions of bridges follow the written chain, without caps; N, C: chain ends. Non-standard residues stand in square brackets, D forms with d. Residues, ends and D or L forms follow the SMILES beside them. *: point of attachment. Phe(4-CONH2) = NC(=O)c1ccc(C[C@H](N)C(=O)O)cc1; Phe(4-COOH) = N[C@@H](Cc1ccc(C(=O)O)cc1)C(=O)O; Phe(4-CH2NH2) = NCc1ccc(C[C@H](N)C(=O)O)cc1; Bip = N[C@@H](Cc1ccc(-c2ccccc2)cc1)C(=O)O; dPro(4S-NH2) = N[C@@H]1CN[C@@H](C(=O)O)C1; Phe(2-Cl) = N[C@@H](Cc1ccccc1Cl)C(=O)O; Phe(3-Me) = Cc1cccc(C[C@H](N)C(=O)O)c1; Phe(2-Me) = Cc1ccccc1C[C@H](N)C(=O)O; Val(3-OH) = CC(C)(O)[C@H](N)C(=O)O; NMeF = CN[C@@H](Cc1ccccc1)C(=O)O; 4Pal = N[C@@H](Cc1ccncc1)C(=O)O; Cha = N[C@@H](CC1CCCCC1)C(=O)O; hSer = N[C@@H](CCO)C(=O)O; Carboxymethyl = O=C(O)C*; NMeA = CN[C@@H](C)C(=O)O; Dab = NCC[C@H](N)C(=O)O; Dap = NC[C@H](N)C(=O)O; Sar = CNCC(=O)O

Biological target: T1, human PD-1 (Jurkat-PD-1 cells) / PE-labeled human PD-L1-Ig (Homo sapiens, UniProt Q15116)
T1 construct: expressed in transfected cells; host or cells: Jurkat cell line over-expressing human PD-1
T1 sequence (Q15116 25-288): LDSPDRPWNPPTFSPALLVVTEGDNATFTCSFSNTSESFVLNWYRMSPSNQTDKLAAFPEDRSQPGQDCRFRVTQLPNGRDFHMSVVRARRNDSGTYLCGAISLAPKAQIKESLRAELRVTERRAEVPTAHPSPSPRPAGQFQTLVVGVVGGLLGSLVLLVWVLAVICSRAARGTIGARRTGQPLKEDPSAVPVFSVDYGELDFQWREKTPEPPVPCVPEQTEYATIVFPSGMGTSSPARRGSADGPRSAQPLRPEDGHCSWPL
Test: Jurkat-PD-1 Cell Binding High-Content Screening Assay (CBA); Jurkat hPD1-PDL1 assay
Details: Jurkat cell line over-expressing human PD-1; PE-labeled PD-L1-Ig 20 nM final; compound incubated 2 hours at 37° C.; read-out: Jurkat HPD1-PDL1 IC50
In short: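 Compound was added to Jurkat-PD-1 cells in DMEM plus 10% fetal calf serum and incubated 2 hours at 37° C. Binding of phycoerythrin-conjugated PD-L1-Ig (20 nM final) to the cells was imaged.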

Row | IC50 [µM] | Compound
1 | 0.83 | CC(C)C[C@@H]1NC(=O)[C@H](CCCNC(=N)N)NC(=O)[C@H](Cc2ccccc2)N(C)C(=O)[C@H](C)N(C)C(=O)[C@H](CCCNC(=N)N)NC(=O)[C@H](Cc2ccc(-c3ccccc3)cc2)NC(=O)[C@H](C(C)C)NC(=O)[C@H](Cc2c[nH]c3ccccc23)NC(=O)[C@H](CC(=O)O)NC(=O)[C@H](Cc2ccc(O)cc2)NC(=O)[C@H](Cc2c[nH]c3ccccc23)NC(=O)CSC[C@@H](C(=O)NCC(N)=O)NC(=O)[C@H](CO)NC(=O)[C@H](C(C)C)NC1=O [Example 1157] ({CH2CO}-WYDWV[Bip]R[NMeA][NMeF]RLVSCG-NH2; thioether N-14)
2 | 0.84 | CC(C)C[C@@H]1NC(=O)[C@H](C)NC(=O)CN(C)C(=O)[C@H](C)N(C)C(=O)[C@H](C(C)C)NC(=O)[C@H](Cc2ccc(-c3ccccc3)cc2)NC(=O)[C@H](CC(C)C)NC(=O)[C@H](Cc2c[nH]c3ccccc23)NC(=O)[C@H](CC(=O)O)NC(=O)[C@H](Cc2ccc(O)cc2)NC(=O)[C@H](Cc2ccccc2)NC(=O)CSC[C@@H](C(=O)N[C@@H](C)C(N)=O)NC(=O)[C@H](CO)NC(=O)[C@H](C(C)C)NC1=O [Example 1158] ({CH2CO}-FYDWL[Bip]V[NMeA][Sar]ALVSCA-NH2; thioether N-14)
3 | 0.86 | CC(C)C[C@@H]1NC(=O)[C@H](Cc2c[nH]c3ccccc23)NC(=O)[C@H](CC(=O)O)NC(=O)[C@H](Cc2ccc(O)cc2)NC(=O)[C@H](Cc2ccccc2)NC(=O)CSC[C@@H](C(=O)N[C@@H](C)C(N)=O)NC(=O)[C@H](CCO)NC(=O)[C@H](C(C)C)NC(=O)[C@H](CC(C)C)NC(=O)[C@H](CC(N)=O)NC(=O)CN(C)C(=O)[C@H](C)N(C)C(=O)[C@H](C(C)C)NC(=O)[C@H](Cc2ccc(-c3ccccc3)cc2)NC1=O [Example 1159] ({CH2CO}-FYDWL[Bip]V[NMeA][Sar]NLV[hSer]CA-NH2; thioether N-14)
4 | 0.87 | CC(C)C[C@@H]1NC(=O)[C@H](Cc2c[nH]c3ccccc23)NC(=O)[C@H](CC(=O)O)NC(=O)[C@H](Cc2ccc(O)cc2)NC(=O)[C@H](Cc2ccc(CN)cc2)NC(=O)CSC[C@@H](C(=O)NCC(N)=O)NC(=O)[C@H](CO)NC(=O)[C@H](C(C)C)NC(=O)[C@H](CC(C)C)NC(=O)[C@H](CC(N)=O)NC(=O)CN(C)C(=O)[C@H](C)N(C)C(=O)[C@H](C(C)C)NC(=O)[C@H](Cc2ccc(-c3ccccc3)cc2)NC1=O [Example 1160] ({CH2CO}-[Phe(4-CH2NH2)]YDWL[Bip]V[NMeA][Sar]NLVSCG-NH2; thioether N-14)
5 | 0.9 | CC(C)C[C@@H]1NC(=O)[C@H](C)NC(=O)CN(C)C(=O)[C@H](C)N(C)C(=O)[C@H](CCC(=O)O)NC(=O)[C@H](Cc2ccc(-c3ccccc3)cc2)NC(=O)[C@H](CC(C)C)NC(=O)[C@H](Cc2c[nH]c3ccccc23)NC(=O)[C@H](CC(=O)O)NC(=O)[C@H](Cc2ccc(O)cc2)NC(=O)[C@H](Cc2ccccc2)NC(=O)CSC[C@@H](C(=O)N[C@@H](C)C(N)=O)NC(=O)[C@H](CO)NC(=O)[C@H](C(C)C)NC1=O [Example 1164] ({CH2CO}-FYDWL[Bip]E[NMeA][Sar]ALVSCA-NH2; thioether N-14)
6 | 0.9 | CC(C)C[C@@H]1NC(=O)[C@H](Cc2c[nH]c3ccccc23)NC(=O)[C@H](CC(=O)O)NC(=O)[C@H](Cc2ccccc2)NC(=O)[C@H](Cc2ccccc2)NC(=O)CSC[C@@H](C(=O)N[C@@H](C)C(N)=O)NC(=O)[C@H](CO)NC(=O)[C@H](C(C)C)NC(=O)[C@H](CC(C)C)NC(=O)[C@H](CC(N)=O)NC(=O)CN(C)C(=O)[C@H](C)N(C)C(=O)[C@H](C(C)C)NC(=O)[C@H](Cc2ccc(-c3ccccc3)cc2)NC1=O [Example 1165] ({CH2CO}-FFDWL[Bip]V[NMeA][Sar]NLVSCA-NH2; thioether N-14)
7 | 0.91 | CC(C)C[C@@H]1NC(=O)[C@H](CCCNC(=N)N)NC(=O)[C@H](Cc2ccccc2)N(C)C(=O)[C@H](C)N(C)C(=O)[C@H](CCCNC(=N)N)NC(=O)[C@H](Cc2ccc(-c3ccccc3)cc2)NC(=O)[C@H](C(C)C)NC(=O)[C@H](Cc2c[nH]c3ccccc23)NC(=O)[C@H](CC(=O)O)NC(=O)[C@H](Cc2ccc(O)cc2)NC(=O)[C@H](Cc2ccccc2)NC(=O)CSC[C@@H](C(=O)N[C@H](C(N)=O)C(C)C)NC(=O)[C@H](CO)NC(=O)[C@H](C(C)C)NC1=O [Example 1167] ({CH2CO}-FYDWV[Bip]R[NMeA][NMeF]RLVSCV-NH2; thioether N-14)
8 | 0.93 | CC(C)C[C@@H]1NC(=O)[C@H](Cc2c[nH]c3ccccc23)NC(=O)[C@H](CC(=O)O)NC(=O)[C@H](Cc2ccc(O)cc2)NC(=O)[C@H](Cc2ccccc2)NC(=O)CSC[C@@H](C(=O)N[C@@H](CN)C(N)=O)NC(=O)[C@H](CO)NC(=O)[C@H](C(C)C)NC(=O)[C@H](CC(C)C)NC(=O)[C@H](CC(N)=O)NC(=O)CN(C)C(=O)[C@H](C)N(C)C(=O)[C@H](C(C)C)NC(=O)[C@H](Cc2ccc(-c3ccccc3)cc2)NC1=O [Example 1168] ({CH2CO}-FYDWL[Bip]V[NMeA][Sar]NLVSC[Dap]-NH2; thioether N-14)
9 | 0.94 | CC(C)C[C@@H]1NC(=O)[C@H](Cc2ccccc2Cl)NC(=O)[C@H](CC(=O)O)NC(=O)[C@H](Cc2ccc(O)cc2)NC(=O)[C@H](Cc2ccccc2)NC(=O)CSC[C@@H](C(=O)N[C@@H](C)C(N)=O)NC(=O)[C@H](CO)NC(=O)[C@H](C(C)C)NC(=O)[C@H](CC(C)C)NC(=O)[C@H](CC(N)=O)NC(=O)CN(C)C(=O)[C@H](C)N(C)C(=O)[C@H](C(C)C)NC(=O)[C@H](Cc2ccc(-c3ccccc3)cc2)NC1=O [Example 1170] ({CH2CO}-FYD[Phe(2-Cl)]L[Bip]V[NMeA][Sar]NLVSCA-NH2; thioether N-14)
10 | 0.94 | CC(C)C[C@@H]1NC(=O)[C@H](Cc2c[nH]c3ccccc23)NC(=O)[C@H](CC(=O)O)NC(=O)[C@H](Cc2ccc(O)cc2)NC(=O)[C@H](Cc2ccccc2)NC(=O)CSC[C@@H](C(=O)N[C@@H](C)C(N)=O)NC(=O)[C@H]([C@@H](C)O)NC(=O)[C@H](CCCNC(=N)N)NC(=O)[C@H](CC(C)C)NC(=O)[C@H](CC(N)=O)NC(=O)[C@H]2CCCN2C(=O)[C@H](C)N(C)C(=O)[C@H](C(C)C)NC(=O)[C@H](Cc2ccc(-c3ccccc3)cc2)NC1=O [Example 1171] ({CH2CO}-FYDWL[Bip]V[NMeA][dP]NLRTCA-NH2; thioether N-14)
11 | 0.95 | Cc1ccccc1C[C@@H]1NC(=O)[C@H](CC(=O)O)NC(=O)[C@H](Cc2ccc(O)cc2)NC(=O)[C@H](Cc2ccccc2)NC(=O)CSC[C@@H](C(=O)N[C@@H](C)C(N)=O)NC(=O)[C@H](CO)NC(=O)[C@H](C(C)C)NC(=O)[C@H](CC(C)C)NC(=O)[C@H](CC(N)=O)NC(=O)CN(C)C(=O)[C@H](C)N(C)C(=O)[C@H](C(C)C)NC(=O)[C@H](Cc2ccc(-c3ccccc3)cc2)NC(=O)[C@H](CC(C)C)NC1=O [Example 1172] ({CH2CO}-FYD[Phe(2-Me)]L[Bip]V[NMeA][Sar]NLVSCA-NH2; thioether N-14)
12 | 0.95 | CC(C)C[C@@H]1NC(=O)[C@H](Cc2c[nH]c3ccccc23)NC(=O)[C@H](CC(=O)O)NC(=O)[C@H](Cc2ccc(O)cc2)NC(=O)[C@H](Cc2ccccc2)NC(=O)CSC[C@@H](C(=O)N[C@@H](CO)C(N)=O)NC(=O)[C@H](CO)NC(=O)[C@H](C(C)C)NC(=O)[C@H](CC(C)C)NC(=O)[C@H](CC(N)=O)NC(=O)CN(C)C(=O)[C@H](C)N(C)C(=O)[C@H](C(C)C)NC(=O)[C@H](Cc2ccc(-c3ccccc3)cc2)NC1=O [Example 1173] ({CH2CO}-FYDWL[Bip]V[NMeA][Sar]NLVSCS-NH2; thioether N-14)
13 | 0.97 | CC(C)C[C@@H]1NC(=O)[C@H](Cc2c[nH]c3ccccc23)NC(=O)[C@H](CC(=O)O)NC(=O)[C@H](Cc2ccc(O)cc2)NC(=O)[C@H](Cc2ccc(C(N)=O)cc2)NC(=O)CSC[C@@H](C(=O)NCC(N)=O)NC(=O)[C@H](CO)NC(=O)[C@H](C(C)C)NC(=O)[C@H](CC(C)C)NC(=O)[C@H](CC(N)=O)NC(=O)CN(C)C(=O)[C@H](C)N(C)C(=O)[C@H](C(C)C)NC(=O)[C@H](Cc2ccc(-c3ccccc3)cc2)NC1=O [Example 1174] ({CH2CO}-[Phe(4-CONH2)]YDWL[Bip]V[NMeA][Sar]NLVSCG-NH2; thioether N-14)
14 | 0.5 | CC(C)C[C@@H]1NC(=O)[C@H](Cc2c[nH]c3ccccc23)NC(=O)[C@H](CC(=O)O)NC(=O)[C@H](Cc2ccc(O)cc2)NC(=O)[C@H](Cc2ccccc2)NC(=O)CSC[C@@H](C(=O)N[C@@H](C)C(N)=O)NC(=O)[C@H](CO)NC(=O)[C@H](C(C)C)NC(=O)[C@H](CC(C)C)NC(=O)[C@H](CC(N)=O)NC(=O)[C@H]2C[C@H](N)CN2C(=O)[C@H]2CCCN2C(=O)[C@H](C(C)C)NC(=O)[C@H](Cc2ccc(-c3ccccc3)cc2)NC1=O [Example 1175] ({CH2CO}-FYDWL[Bip]V[dP][dPro(4S-NH2)]NLVSCA-NH2; thioether N-14)
15 | 0.24 | CC(C)C[C@@H]1NC(=O)[C@H](Cc2c[nH]c3ccccc23)NC(=O)[C@H](CC(=O)O)NC(=O)[C@H](Cc2ccc(O)cc2)NC(=O)[C@H](Cc2ccccc2)NC(=O)CSC[C@@H](C(=O)N[C@@H](C)C(N)=O)NC(=O)[C@H](CO)NC(=O)[C@H](C(C)C)NC(=O)[C@H](CC(C)C)NC(=O)[C@H](CCC(=O)O)NC(=O)[C@H]2CCCN2C(=O)[C@H](C)N(C)C(=O)[C@H](CCC(=O)O)NC(=O)[C@H](Cc2ccc(-c3ccccc3)cc2)NC1=O [Example 1177] ({CH2CO}-FYDWL[Bip]E[NMeA][dP]ELVSCA-NH2; thioether N-14)
16 | 0.07 | Cc1cccc(C[C@@H]2NC(=O)[C@H](CC(=O)O)NC(=O)[C@H](Cc3ccc(OCC(=O)O)cc3)NC(=O)[C@H](Cc3ccncc3)NC(=O)CSC[C@@H](C(=O)N[C@@H](CCN)C(N)=O)NC(=O)[C@H](CO)NC(=O)[C@H](C(C)(C)O)NC(=O)[C@H](CC3CCCCC3)NC(=O)[C@H](CCN)NC(=O)[C@H]3CCCN3C(=O)[C@H](C)N(C)C(=O)[C@H](Cc3ccc(OCC(=O)O)cc3)NC(=O)[C@H](Cc3ccc(-c4ccccc4)cc3)NC(=O)[C@H](Cc3ccc(C(=O)O)cc3)NC2=O)c1 [Example 1178] ({CH2CO}-[4Pal]Y(Carboxymethyl)D[Phe(3-Me)][Phe(4-COOH)][Bip]Y(Carboxymethyl)[NMeA][dP][Dab][Cha][Val(3-OH)]SC[Dab]-NH2; thioether N-14)
